Measured values as given in patent US20060069132A1, “Azolecarboxamide herbicides” (priority 2004, published 2006).

Columns and labels:
barnyardgrass [1] = assay: Test A pre-/postemergence herbicide test; type: in vivo, Echinochloa crus-galli
Summary of the method: (§1)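 Both application timings were run together: directed soil spray over freshly planted seeds in sandy loam, and runoff spray onto 2–10 cm seedlings. Evaluation after ~10 days in greenhouse used a 0–100 visual scale versus untreated controls.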

large crabgrass [2] = assay: Test A pre-/postemergence herbicide test; type: in vivo, Digitaria sanguinalis
Summary of the method: as §1

giant foxtail [3] = assay: Test A pre-/postemergence herbicide test; type: in vivo, Setaria faberi
Summary of the method: as §1

morningglory [4] = assay: Test A pre-/postemergence herbicide test; type: in vivo, Ipomoea spp.
Summary of the method: as §1

redroot pigweed = assay: Test A pre-/postemergence herbicide test; type: in vivo, Amaranthus retroflexus
Summary of the method: as §1

velvetleaf [5] = assay: Test A pre-/postemergence herbicide test; type: in vivo, Abutilon theophrasti
Summary of the method: as §1

barnyardgrass [6] = assay: Test B pre-/postemergence herbicide test; type: in vivo, Echinochloa crus-galli; details: for Plant response rating, Barnyardgrass: preemergence; for Barnyardgrass plant response rating: postemergence, visual rating, scale 0 (no effect) to 100 (complete control)
Summary of the method: (§2)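 Visual rating, 0 (no effect) to 100 (complete control), versus untreated controls after 13–15 d in greenhouse. Pre- and postemergence applications (postemergence plants 2–18 cm, 1–4 leaves); flooded paddy arm at 2-leaf stage. Compounds in non-phytotoxic solvent plus surfactant.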

Surinam grass = assay: Test B pre-/postemergence herbicide test; type: in vivo, Urochloa decumbens; details: for Plant response rating, Surinam Grass: preemergence; for Surinam Grass plant response rating: postemergence, visual rating, scale 0 (no effect) to 100 (complete control)
Summary of the method: (§3)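 Flooded paddy rice and barnyardgrass were treated at the 2-leaf stage; upland plantings received compound either on sown seed or on 1- to 4-leaf seedlings. All were kept 13–15 days in a greenhouse and scored visually, 0–100, relative to untreated plants.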

cocklebur = assay: Test B pre-/postemergence herbicide test; type: in vivo, Xanthium strumarium; details: for Plant response rating, Cocklebur: preemergence; for Cocklebur plant response rating: postemergence, visual rating, scale 0 (no effect) to 100 (complete control)
Summary of the method: as §2

corn = assay: Test B pre-/postemergence herbicide test; type: in vivo, Zea mays; details: for Plant response rating, Corn: preemergence; for Corn plant response rating: postemergence, visual rating, scale 0 (no effect) to 100 (complete control)
Summary of the method: as §3

large crabgrass [7] = assay: Test B pre-/postemergence herbicide test; type: in vivo, Digitaria sanguinalis; details: for Plant response rating, Crabgrass, Large: preemergence; for Crabgrass, Large plant response rating: postemergence, visual rating, scale 0 (no effect) to 100 (complete control)
Summary of the method: as §3

giant foxtail [8] = assay: Test B pre-/postemergence herbicide test; type: in vivo, Setaria faberi; details: for Plant response rating, Foxtail, Giant: preemergence; for Foxtail, Giant plant response rating: postemergence, visual rating, scale 0 (no effect) to 100 (complete control)
Summary of the method: as §3

lambsquarters = assay: Test B pre-/postemergence herbicide test; type: in vivo, Chenopodium album; details: for Plant response rating, Lambsquarters: preemergence; for Lambsquarters plant response rating: postemergence, visual rating, scale 0 (no effect) to 100 (complete control)
Summary of the method: as §3

morningglory [9] = assay: Test B pre-/postemergence herbicide test; type: in vivo, Ipomoea coccinea; details: for Plant response rating, Morningglory: preemergence; for Morningglory plant response rating: postemergence, visual rating, scale 0 (no effect) to 100 (complete control)
Summary of the method: as §2

pigweed = assay: Test B pre-/postemergence herbicide test; type: in vivo, Amaranthus retroflexus; details: for Plant response rating, Pigweed: preemergence; for Pigweed plant response rating: postemergence, visual rating, scale 0 (no effect) to 100 (complete control)
Summary of the method: as §3

rice [10] = assay: Test B pre-/postemergence herbicide test; type: in vivo, Oryza sativa; details: preemergence, 125 g ai/ha; 0 to 100 scale, 0 is no effect, 100 is complete control
Summary of the method: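 Evaluation is visual, comparing treated with control plants on a scale where 0 means no effect and 100 means full control. Treatments were preemergence, or postemergence on seedlings 2–18 cm tall, and held 13–15 days in the greenhouse.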

velvetleaf [11] = assay: Test B pre-/postemergence herbicide test; type: in vivo, Abutilon theophrasti; details: for Plant response rating, Velvetleaf: preemergence; for Velvetleaf plant response rating: postemergence, visual rating, scale 0 (no effect) to 100 (complete control)
Summary of the method: as §3

blackgrass = assay: Test B postemergence herbicide test; type: in vivo, Alopecurus myosuroides; details: postemergence, visual rating, scale 0 (no effect) to 100 (complete control)
Summary of the method: (§4)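 Visual ratings, 0 (no effect) to 100 (complete control), made versus controls after 13–15 d greenhouse. Paddy plants treated at 2-leaf stage; postemergence plants at 1- to 4-leaf stage, 2–18 cm tall.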

wheat = assay: Test B postemergence herbicide test; type: in vivo, Triticum aestivum; set-up: key to Wheat plant response rating: 0 = no effect, 100 = complete control; details: postemergence, visual rating, scale 0 (no effect) to 100 (complete control)
Summary of the method: (§5)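 Plants grow to 1- to 4-leaf stage (2–18 cm) for postemergence spraying, or to 2-leaf stage for the paddy test. Formulated compound is applied. Greenhouse holding lasts 13–15 days. Response is scored visually relative to controls, 0 no effect to 100 complete control; a dash means no result.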

wild oat = assay: Test B postemergence herbicide test; type: in vivo, Avena fatua; details: postemergence, visual rating, scale 0 (no effect) to 100 (complete control)
Summary of the method: as §5

rice [12] = assay: Test B flooded paddy test; type: in vivo, Oryza sativa; details: 1000 g ai/ha, visual rating, scale 0 to 100 (0 no effect, 100 complete control), 13 to 15 days
Summary of the method: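 After treating 2-leaf paddy plants or 2–18 cm postemergence plants (1 to 4 leaves) with formulated chemical, researchers kept them in a greenhouse for 13–15 days. Effects were judged visually versus controls: 0 indicates none, 100 total control.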

[13] = test system: small flower umbrella sedge; assay: Test B flooded paddy test; type: in vivo, Cyperus difformis; details: 1000 g ai/ha, visual rating, scale 0 to 100 (0 no effect, 100 complete control), 13 to 15 days
Summary of the method: as §4

ducksalad = assay: Test B flooded paddy test; type: in vivo, Heteranthera limosa; details: 1000 g ai/ha, visual rating, scale 0 to 100 (0 no effect, 100 complete control), 13 to 15 days
Summary of the method: as §4

barnyardgrass [14] = assay: Test B flooded paddy test; type: in vivo, Echinochloa crus-galli; details: 1000 g ai/ha, visual rating, scale 0 to 100 (0 no effect, 100 complete control), 13 to 15 days
Summary of the method: as §4

[15] = Postemergence, 500 g ai/ha, 0 to 100 scale, 0 no effect, 100 complete control
[16] = Postemergence, 2000 g ai/ha, 0 to 100 scale, 0 no effect, 100 complete control
[17] = Preemergence, 500 g ai/ha, visual rating, 0 to 100 scale (0 no effect, 100 complete control)
[18] = Preemergence, 2000 g ai/ha, visual rating, 0 to 100 scale (0 no effect, 100 complete control)
[19] = preemergence, 500 g ai/ha, visual injury, 0 to 100 scale (0 no effect, 100 complete control)
[20] = 500 g ai/ha, visual rating 0-100, 0 no effect, 100 complete control
[21] = 125 g ai/ha, 0 to 100 scale, 0 is no effect, 100 is complete control

With `CC(C)NS(=O)(=O)c1cccc(NC(=O)c2cc(C(C)(C)C)nn2C)c1` [Compound 124] the “Barnyardgrass plant response rating” value (barnyardgrass [1]; [15]) was 0, the “Plant response rating, Barnyardgrass” value (barnyardgrass [1]; [16]) was 0 and the “Barnyardgrass plant response rating” value (barnyardgrass [1]; [17]) was 0. For the same compound, the “Barnyardgrass plant response rating” value (barnyardgrass [1]; [18]) was 10, the “Crabgrass, Large plant response rating” value (large crabgrass [2]; [15]) was 10 and the “Plant response rating, Crabgrass, Large” value (large crabgrass [2]; [16]) was 10. For the same compound, the “Crabgrass, Large plant response rating” value (large crabgrass [2]; [17]) was 30, the “Crabgrass, Large plant response rating” value (large crabgrass [2]; [18]) was 15 and the “Foxtail, Giant plant response rating” value (giant foxtail [3]; [15]) was 0. For the same compound, the “Plant response rating, Foxtail, Giant” value (giant foxtail [3]; [16]) was 0, the “Foxtail, Giant plant response rating” value (giant foxtail [3]; [17]) was 0 and the “Foxtail, Giant plant response rating” value (giant foxtail [3]; [18]) was 0. The “Morningglory plant response rating” value (morningglory [4]; [15]) was 5, the “Plant response rating, Morningglory” value (morningglory [4]; [16]) was 0 and the “Morningglory plant response rating” value (morningglory [4]; [17]) was 5. The “Morningglory plant response rating” value (morningglory [4]; [18]) was 15, the “Pigweed plant response rating” value (redroot pigweed; [15]) was 30 and the “Plant response rating, Pigweed” value (redroot pigweed; [16]) was 40. The “Pigweed plant response rating” value (redroot pigweed; [18]) was 75, the “Pigweed plant response rating” value (redroot pigweed; [19]) was 20 and the “Velvetleaf plant response rating” value (velvetleaf [5]; [15]) was 10. The “Plant response rating, Velvetleaf” value (velvetleaf [5]; [16]) was 10, the “Velvetleaf plant response rating” value (velvetleaf [5]; [18]) was 15 and the “Velvetleaf plant response rating” value (velvetleaf [5]; [19]) was 0. The “Plant response rating, Barnyardgrass” value (barnyardgrass [6]; [20]) was 10, the “Barnyardgrass plant response rating” value (barnyardgrass [6]; 125 g ai/ha) was 0 and the “Barnyardgrass plant response rating” value (barnyardgrass [6]; 500 g ai/ha) was 0. The “Plant response rating, Barnyardgrass” value (barnyardgrass [6]; [21]) was 0, the “Plant response rating, Surinam Grass” value (Surinam grass; [20]) was 10 and the “Surinam Grass plant response rating” value (Surinam grass; 125 g ai/ha) was 10. The “Surinam Grass plant response rating” value (Surinam grass; 500 g ai/ha) was 20, the “Plant response rating, Surinam Grass” value (Surinam grass; [21]) was 0 and the “Plant response rating, Cocklebur” value (cocklebur; [20]) was 0. The “Cocklebur plant response rating” value (cocklebur; 125 g ai/ha) was 0, the “Cocklebur plant response rating” value (cocklebur; 500 g ai/ha) was 10 and the “Plant response rating, Cocklebur” value (cocklebur; [21]) was 0. The “Plant response rating, Corn” value (corn; [20]) was 0, the “Corn plant response rating” value (corn; 125 g ai/ha) was 0 and the “Corn plant response rating” value (corn; 500 g ai/ha) was 10. The “Plant response rating, Corn” value (corn; [21]) was 0, the “Plant response rating, Crabgrass, Large” value (large crabgrass [7]; [20]) was 0 and the “Crabgrass, Large plant response rating” value (large crabgrass [7]; 125 g ai/ha) was 10. The “Crabgrass, Large plant response rating” value (large crabgrass [7]; 500 g ai/ha) was 10, the “Plant response rating, Crabgrass, Large” value (large crabgrass [7]; [21]) was 0 and the “Plant response rating, Foxtail, Giant” value (giant foxtail [8]; [20]) was 10. For the same compound, the “Foxtail, Giant plant response rating” value (giant foxtail [8]; 125 g ai/ha) was 0, the “Foxtail, Giant plant response rating” value (giant foxtail [8]; 500 g ai/ha) was 10 and the “Plant response rating, Foxtail, Giant” value (giant foxtail [8]; [21]) was 0. For the same compound, the “Plant response rating, Lambsquarters” value (lambsquarters; [20]) was 80, the “Lambsquarters plant response rating” value (lambsquarters; 125 g ai/ha) was 30 and the “Lambsquarters plant response rating” value (lambsquarters; 500 g ai/ha) was 70. The “Plant response rating, Lambsquarters” value (lambsquarters; [21]) was 0, the “Plant response rating, Morningglory” value (morningglory [9]; [20]) was 0 and the “Morningglory plant response rating” value (morningglory [9]; 125 g ai/ha) was 0. The “Morningglory plant response rating” value (morningglory [9]; 500 g ai/ha) was 10, the “Plant response rating, Morningglory” value (morningglory [9]; [21]) was 0 and the “Plant response rating, Pigweed” value (pigweed; [20]) was 90. The “Pigweed plant response rating” value (pigweed; 125 g ai/ha) was 20, the “Pigweed plant response rating” value (pigweed; 500 g ai/ha) was 70 and the “Plant response rating, Pigweed” value (pigweed; [21]) was 30. The “Plant response rating, Rice” value (rice [10]) was 0, the “Plant response rating, Velvetleaf” value (velvetleaf [11]; [20]) was 0 and the “Velvetleaf plant response rating” value (velvetleaf [11]; 125 g ai/ha) was 0. The “Velvetleaf plant response rating” value (velvetleaf [11]; 500 g ai/ha) was 10, the “Plant response rating, Velvetleaf” value (velvetleaf [11]; [21]) was 0 and the “Blackgrass plant response rating” value (blackgrass; 125 g ai/ha) was 0. The “Blackgrass plant response rating” value (blackgrass; 500 g ai/ha) was 0, the “Wheat plant response rating” value (wheat; 125 g ai/ha) was 0 and the “Wheat plant response rating” value (wheat; 500 g ai/ha) was 0. For the same compound, the “Oat, Wild plant response rating” value (wild oat; 125 g ai/ha) was 0, the “Oat, Wild plant response rating” value (wild oat; 500 g ai/ha) was 10 and the “Rice plant response rating” value (rice [12]) was 0. The “Sedge, Umbrella plant response rating” value [13] was 0, the “Ducksalad plant response rating” value (ducksalad) was 70 and the “Barnyardgrass plant response rating” value (barnyardgrass [14]) was 0.
